Active and inactive are the calls of the source.
Legend:
Format in all cases: functional, cell-based
UACC-62 = assay: Cytotoxicity against human UACC62 cells by spectrophotometry
PC-3 = assay: Cytotoxicity against human PC3 cells by spectrophotometry
NCI-H460 = assay: Cytotoxicity against human NCI-H460 cells by spectrophotometry
HT-29 = assay: Cytotoxicity against human HT-29 cells by spectrophotometry
K562 = assay: Cytotoxicity against human K562 cells by spectrophotometry
NCI/ADR-RES = assay: Cytotoxicity against human NCI/ADR-RES cells by spectrophotometry
OVCAR-3 = assay: Cytotoxicity against human OVCAR-3 cells by spectrophotometry
MCF7 = assay: Cytotoxicity against human MCF7 cells by spectrophotometry

Measured: Activity

c1ccc(Nc2ncnc3cc4c(cc23)OCO4)cc1
active: UACC-62 | PC-3 | NCI-H460 | HT-29 | K562 | NCI/ADR-RES | OVCAR-3 | MCF7

Cc1cccc(Nc2ncnc3cc4c(cc23)OCO4)c1
active: UACC-62 | PC-3 | NCI-H460 | HT-29 | K562 | NCI/ADR-RES | OVCAR-3 | MCF7

Source: ChEMBL document CHEMBL1240466, “New substituted 4-arylaminoquinazolines as potent inhibitors of breast tumor cell lines: in vitro and docking experiments” (Eur J Med Chem, 2010)
